Active and inactive are the calls of the source.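 The calls were made as follows: active = blockers of MCL1 binding to BIM peptide with IC50 at or below 10 micromolar; inactive = IC50 above 10 micromolar.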

Sequence of Induced myeloid leukemia cell differentiation protein Mcl-1 (Homo sapiens) (Q07820 whole entry, looked up): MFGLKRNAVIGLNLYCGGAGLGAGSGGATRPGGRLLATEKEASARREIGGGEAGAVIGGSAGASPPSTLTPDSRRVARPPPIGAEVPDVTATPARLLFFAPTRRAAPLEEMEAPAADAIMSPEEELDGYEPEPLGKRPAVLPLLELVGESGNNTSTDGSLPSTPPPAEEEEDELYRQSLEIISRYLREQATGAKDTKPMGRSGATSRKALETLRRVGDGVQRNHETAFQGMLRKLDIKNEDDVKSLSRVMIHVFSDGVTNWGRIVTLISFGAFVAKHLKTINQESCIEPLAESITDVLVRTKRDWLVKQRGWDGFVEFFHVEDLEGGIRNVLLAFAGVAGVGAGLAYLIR

This assay has as its target Induced myeloid leukemia cell differentiation protein Mcl-1 (Homo sapiens) (UniProt Q07820). The assay is described as follows: blockers of MCL1–BIM BH3 interaction – biochemical, fluorescence polarization, GST-MCL1, FITC-BIM-BH3, powder samples, dose response (AID 2791). For orientation: Polarisation of emitted light reports the rotation of a fluorescent probe.
As a reminder, the IC50 is the concentration that inhibits the measured activity by half. As for `CCOc1ccc(NC(=O)c2cccc(-n3cccc3)c2)cc1S(=O)(=O)N1CCOCC1`, the IC50 was > 109 µM (inactive). Turning to `O=C(NN=Cc1cccc(F)c1)c1cc(-c2ccco2)nc2ccccc12`, the IC50 is 6.88 µM. Next, `CCc1sc(C(C2C(=O)CC(C)(C)CC2=O)C2C(=O)CC(C)(C)CC2=O)cc1[N+](=O)[O-]`: “inactive”. The figure for `Nc1ccc(C(=O)NN=Cc2cc(N=Nc3cccc4ccccc34)ccc2O)cc1` is 5.84 µM; for `Cc1cccc(NC(=O)CNC(=O)c2cccc(-n3cccc3)c2)c1C` it is “inactive”. The figure for `COc1ccc(Cc2nnc(NC(=O)Cc3cccs3)s2)cc1OC` is 7.34 µM. Consider `C=CCn1c(SCC(=O)c2ccc(O)c(O)c2)nnc1-c1cccnc1`, for which the IC50 is 4.09 µM. The figure for `O=C(NN=Cc1ccc(-c2ccc(S(=O)(=O)Nc3ncccn3)cc2)o1)c1cc2ccccc2cc1O` is > 109 µM (inactive); for `COc1ccc(NC(=O)CN(C)C(=O)c2cc3c(s2)CCC3)cc1` it is “inactive”; for `O=C1COc2ccc(C(=O)COC(=O)/C=C/c3ccc(Br)o3)cc2N1` it is > 109 µM (inactive). Next, `COc1ccc(-n2cccc2/C=C2\C(=N)N3N=C(c4ccco4)SC3=NC2=O)cc1`: 1.45 µM; `COC(=O)c1ccccc1NCc1cc(=O)oc2cc(O)c(O)cc12`: 5.01 µM; `C=CCN=c1scc(-c2ccco2)n1/N=C/c1ccc(O)c(O)c1O`: 0.844 µM.

The values are drawn from PubChem BioAssay AID2791 (The Scripps Research Institute Molecular Screening Center, 2010).
